Data published in US4575498A, “Method for restoring depleted purine nucleotide pools” (priority 1983, dated 1986).

Columns and labels:
myocardium = assay: Regional myocardial blood flow, coronary occlusion and reperfusion; assay type: in vivo, dogs; conditions: any time point
Procedure: (§1) Catheters were placed in the left atrium and aorta, and a snare positioned around the left anterior descending coronary artery in 15 open-chest dogs. Regional myocardial blood flow was measured and transmural tissue samples were obtained using known techniques. Blood flow measurements and tissue samples were obtained prior to and just before release of a 12-minute coronary occlusion. The chest was closed and the animals allowed to awaken. Twenty-four hours later, the animals were anesthetized, the chest opened, blood flow measured, and tissue samples obtained. No hemodynamic measurements were made on the animals.
(§2) In seven animals, 200 mM AICAriboside (Sigma Chemical Co.) was infused into the left atrial catether at either 14 μmol/min (n=2) or 37 μmol/min (n=5) beginning with coronary occlusion and continuing for 24 hours. Eight control animals were infused with an equal volume of saline over 24 hours.
(§3) All comparisons between AICAriboside and saline treated animals were done by unpaired analyses.

postischemic myocardium = assay: Myocardial nucleotide and creatine phosphate content, coronary occlusion and reperfusion; assay type: in vivo, dogs
Procedure: as §1, §2
Nucleotide and creatine phosphate analyses were performed by high performance liquid chromatography on acid extracts of the tissue as previously described. Nucleotide analysis is described in Example 1, and creatine phosphate analysis is described in Juengling and Kammermeier, Anal. Biochem., 102, 358-361 (1980).
as §3

[1] = AICAriboside plasma concentration during infusion; assay type: in vivo, mongrel dogs; conditions: dog, after 42 min of infusion, 100 mM at 1.9 ml/min into left atrium
Procedure: (§4) Animal Preparation--Seven adult mongrel dogs were anesthetized intramuscularly with 40 mg of morphine sulfate and intravenously with 80 mg/kg of chloralose, an endotraceal tube was inserted, and ventilation was maintained with an Emerson volume-cycled respirator and 100% oxygen. The heart was exposed through a left lateral thoracotomy, polyvinyl chloride catheters (3-mm outer diameter) were inserted into the left atrium and into the aorta through the right femoral artery, and a Statham TTQ electromagnetic flow meter probe was positioned around the ascending aorta. The aortic pressure catheter was connected to a Statham P23Db transducer (Statham Instruments, Inc., Oxnard, CA) with the zero reference at the midchest level. Aortic flow was measured with a Howell Instruments Series 1000 Flowmeter, and stroke volume and cardiac output were calculated from the aortic flow measurement. All hemodynamic data were monitored continuously throughout the course of the study. […]
(§5) After hemodynamic parameters had stabilized, regional myocardial blood flow was measured by injecting radioactively labled microspheres. […] Venous and arterial blood samples were also obtained at 42 min. of infusion, and regional myocardial blood flow was measured at 10 and 39 min. of AICAriboside infusion. […]

[2] = system: cardiac and skeletal muscle; assay: Creatine phosphate content of cardiac and skeletal muscle; assay type: in vivo, mongrel dogs; conditions: throughout the study (6.8±0.4 and 10.6±0.5 μmol/g at beginning)
Procedure: as §4, §5

[3] = endo, 24 Hr postischemic (first column)
[4] = endo, 24 Hr postischemic (second column so headed)
[5] = epi, 24 Hr postischemic (first column)
[6] = epi, 24 Hr postischemic (second column so headed)
[7] = epi, 24 Hr postischemic (second column so headed), P < 0.05 vs saline

In the case of NC(=O)c1ncn([C@@H]2O[C@H](CO)[C@@H](O)[C@H]2O)c1N [AICAriboside, 5-amino-4-imidazolecarboxamide riboside], the “regional flow vs saline group” value (myocardium) is reported as “no differences”, the GTP content restoration (postischemic myocardium; 24 hours of reperfusion, saline 82% (epi), 78% (endo) of nonischemic levels) is reported as “restored to nonischemic levels” and the ADP (postischemic myocardium; [3]) is reported as 0.78 ± 0.09 μmol/g wet wt. For the same compound, the AMP (postischemic myocardium; [3]) was 0.056 ± 0.019 μmol/g wet wt, the “CP (creatine phosphate)” value (postischemic myocardium; [3]) was 7.8 ± 1.1 μmol/g wet wt and the CTP (postischemic myocardium; [3]) was 0.052 ± 0.005 μmol/g wet wt. For the same compound, the NAD (postischemic myocardium; [3]) was 0.57 ± 0.02 μmol/g wet wt, the UTP (postischemic myocardium; [3]) was 0.121 ± 0.013 μmol/g wet wt and the IMP (postischemic myocardium; endo, 24 Hr postischemic (first column), P < 0.05 vs saline) was 0.027 ± 0.007 μmol/g wet wt. For the same compound, the ADP (postischemic myocardium; [4]) was 0.75 ± 0.07 μmol/g wet wt, the AMP (postischemic myocardium; [4]) was 0.041 ± 0.005 μmol/g wet wt and the “CP (creatine phosphate)” value (postischemic myocardium; [4]) was 6.9 ± 0.5 μmol/g wet wt. For the same compound, the CTP (postischemic myocardium; [4]) was 0.056 ± 0.004 μmol/g wet wt, the NAD (postischemic myocardium; [4]) was 0.60 ± 0.05 μmol/g wet wt and the UTP (postischemic myocardium; [4]) was 0.106 ± 0.011 μmol/g wet wt. It also gave an IMP (postischemic myocardium; endo, 24 Hr postischemic (second column so headed), P < 0.05 vs saline) of 0.017 ± 0.004 μmol/g wet wt, an ADP (postischemic myocardium; endo, occlusion) of 0.86 ± 0.06 μmol/g wet wt and an AMP (postischemic myocardium; endo, occlusion) of 0.089 ± 0.012 μmol/g wet wt. For the same compound, the “CP (creatine phosphate)” value (postischemic myocardium; endo, occlusion) was 2.0 ± 0.3 μmol/g wet wt, the CTP (postischemic myocardium; endo, occlusion) was 0.016 ± 0.003 μmol/g wet wt and the IMP (postischemic myocardium; endo, occlusion) was 0.008 ± 0.002 μmol/g wet wt. For the same compound, the NAD (postischemic myocardium; endo, occlusion) was 0.45 ± 0.02 μmol/g wet wt, the UTP (postischemic myocardium; endo, occlusion) was 0.055 ± 0.007 μmol/g wet wt and the “increase in ATP content” value (postischemic myocardium; endo, previously ischemic region, 24 hours of reperfusion, saline 21%) was 63%. The “ATP content vs saline-treated” value (postischemic myocardium; epi and endo, previously ischemic region, 24 hours of reperfusion, P<0.001) was “greater in the AICAriboside group”, the ADP (postischemic myocardium; [5]) was 0.73 ± 0.05 μmol/g wet wt and the AMP (postischemic myocardium; [5]) was 0.048 ± 0.009 μmol/g wet wt. The “CP (creatine phosphate)” value (postischemic myocardium; [5]) was 7.1 ± 0.5 μmol/g wet wt, the CTP (postischemic myocardium; [5]) was 0.051 ± 0.004 μmol/g wet wt and the NAD (postischemic myocardium; [5]) was 0.56 ± 0.03 μmol/g wet wt. The UTP (postischemic myocardium; [5]) was 0.104 ± 0.121 μmol/g wet wt, the IMP (postischemic myocardium; epi, 24 Hr postischemic (first column), P < 0.05 vs saline) was 0.025 ± 0.007 μmol/g wet wt and the ADP (postischemic myocardium; [6]) was 0.70 ± 0.05 μmol/g wet wt. The AMP (postischemic myocardium; [6]) was 0.036 ± 0.005 μmol/g wet wt, the “CP (creatine phosphate)” value (postischemic myocardium; [6]) was 7.8 ± 0.5 μmol/g wet wt and the CTP (postischemic myocardium; [6]) was 0.051 ± 0.005 μmol/g wet wt. It also gave a UTP (postischemic myocardium; [6]) of 0.096 ± 0.008 μmol/g wet wt, an IMP (postischemic myocardium; [7]) of 0.015 ± 0.004 μmol/g wet wt and an NAD (postischemic myocardium; [7]) of 0.55 ± 0.02 μmol/g wet wt. The ADP (postischemic myocardium; epi, occlusion) was 0.99 ± 0.11 μmol/g wet wt, the AMP (postischemic myocardium; epi, occlusion) was 0.135 ± 0.045 μmol/g wet wt and the “CP (creatine phosphate)” value (postischemic myocardium; epi, occlusion) was 2.9 ± 0.7 μmol/g wet wt. For the same compound, the CTP (postischemic myocardium; epi, occlusion) was 0.023 ± 0.003 μmol/g wet wt, the IMP (postischemic myocardium; epi, occlusion) was 0.007 ± 0.001 μmol/g wet wt and the NAD (postischemic myocardium; epi, occlusion) was 0.47 ± 0.03 μmol/g wet wt. The UTP (postischemic myocardium; epi, occlusion) was 0.061 ± 0.007 μmol/g wet wt, the “increase in ATP content” value (postischemic myocardium; epi, previously ischemic region, 24 hours of reperfusion, saline 2%) was 41% and the “GTP content vs saline” value (postischemic myocardium; epicardium and endocardium of previously ischemic region, 24 hours of reperfusion, P<0.003) was “greater in the AICAriboside group”. The “AMP or ADP content vs saline” value (postischemic myocardium; postischemic region) was “no detectable differences”, the “UTP, CTP, or NAD^+ content vs saline” value (postischemic myocardium; postischemic region) was “no statistically significant differences” and the “total adenine nucleotide content (ATP+ADP+AMP) vs saline” value (postischemic myocardium; postischemic region) was “greater in the AICAriboside group”. For the same compound, the “creatine phosphate content restoration” value (postischemic myocardium; postischemic regions, both groups) was “restored to preocclusion levels”, the “creatine phosphate fall at end of occlusion” value (postischemic myocardium; vs saline) was “fell to a comparable extent” and the “percentage drop in ATP during ischemia” value (postischemic myocardium; vs saline) was “comparable in both groups”. The concentration at 0.7 h [1] was 336 ± 26 µM and the creatine phosphate content [2] was “did not vary significantly”.
